Laboratory results published in ChEMBL document CHEMBL4616724, “Topoisomerase Inhibitors Addressing Fluoroquinolone Resistance in Gram-Negative Bacteria” (J Med Chem, 2020).
≈ marks a conversion by molar mass, not a printed value.

What was measured:
Escherichia coli [1] = assay: Antibacterial activity against wild type Escherichia coli ATCC 25922 at pH 7.4 by CLSI-based broth microdilution assay; assay type: functional
Pseudomonas aeruginosa [2] = assay: Antibacterial activity against wild type Pseudomonas aeruginosa PAO1 K767 by CLSI-based broth microdilution assay; assay type: functional
Klebsiella pneumoniae = assay: Antibacterial activity against wild type Klebsiella pneumoniae ATCC 43816 by CLSI-based broth microdilution assay; assay type: functional
Pseudomonas aeruginosa [3] = assay: Antibacterial activity against Pseudomonas aeruginosa K1542/K767 harboring MexB/MexXY deletion mutant by CLSI-based broth microdilution assay; assay type: functional
Pseudomonas aeruginosa [4] = assay: Antibacterial activity against Pseudomonas aeruginosa NB52023 harboring gyrA T83I mutant/ParC S87L mutant by CLSI-based broth microdilution assay; assay type: functional
Escherichia coli [5] = assay: Antibacterial activity against Escherichia coli BW25113/JW0451-2 harboring AcrB deletion mutant by CLSI-based broth microdilution assay; assay type: functional
[6] = Dissociation constant, pKa of the compound by UV metric method; assay type: physicochemical
[7] = Inhibition of recombinant full-length C-terminal His6-tagged Escherichia coli DNA topoisomerase 4 subunit ParC/ParE using kinetoplast DNA as substrate preincubated for 30 mins followed by substrate addition and measured after 1 hr in presence of ATP by size exclusion chromatography
[8] = Solubility of the compound in pH 7 PBS incubated for 24 hrs under gently shaking condition by UPLC/UV/CLND/MS analysis; assay type: physicochemical; settings: buffer, pH 7, 24 h
[9] = Photoirradiation factor, ratio of IC50 for BALB/c mouse 3T3 cells under dark condition to IC50 for BALB/c mouse 3T3 cells under 5 J/cm2 sunlight irradiation by neutral red uptake assay; assay type: ADME, cell-based, NIH3T3; settings: BALB/c 3T3 cells, read-out: Ratio IC50
NIH3T3 = assay: Phototoxicity against BALB/c mouse 3T3 cells assessed as reduction in cell viability preincubated for 1 hr followed by 5 J/cm2 UVA sunlight irradiation for 50 mins and subsequent replacement of medium and measured after 24 hrs by neutral red uptake assay; assay type: cell-based; settings: NIH3T3, light or radiation study
Escherichia coli [10] = assay: Antibacterial activity against wild type Escherichia coli ATCC 25922 at pH 5.8 by CLSI-based broth microdilution assay; assay type: functional
Escherichia coli [11] = assay: Ratio of MIC for antibacterial activity against wild type Escherichia coli ATCC 25922 at pH 5.8 to MIC for antibacterial activity against wild type Escherichia coli ATCC 25922 at pH 7.4; assay type: functional
[12] = Dark toxicity in BALB/c mouse 3T3 cells assessed as reduction in cell viability incubated for 1 hr prior to 50 mins incubation under dark condition followed by replacement of medium and measured after 24 hrs by neutral red uptake assay; assay type: cell-based, NIH3T3; settings: BALB/c 3T3 cells
[13] = Selectivity ratio of MIC for wild type Escherichia coli ATCC 25922 to MIC for Escherichia coli BW25113/JW0451-2 harboring AcrB deletion mutant; assay type: functional

SMILES: NCc1cc(=O)n(C2CC2)c2cc(N3CC4CC4(N)C3)c(F)cc12 (configuration not stated)
- MIC (Escherichia coli [1]): 1 µg/mL (≈ 3.05 µM)
- MIC (Pseudomonas aeruginosa [2]): 16 µg/mL (≈ 48.7 µM)
- MIC (Klebsiella pneumoniae): 4 µg/mL (≈ 12.2 µM)
- MIC (Pseudomonas aeruginosa [3]): 2 µg/mL (≈ 6.09 µM)
- MIC (Pseudomonas aeruginosa [4]): 4 µg/mL (≈ 12.2 µM)
- MIC (Escherichia coli [5]): 0.5 µg/mL (≈ 1.52 µM)

SMILES: Cc1c(N2CC[C@@H]([C@H](C)N)C2)c(F)cc2c(O)cc(=O)n(C3CC3)c12
- MIC (Escherichia coli [1]): > 32 µg/mL
- MIC (Pseudomonas aeruginosa [2]): > 32 µg/mL
- MIC (Klebsiella pneumoniae): > 32 µg/mL
- MIC (Pseudomonas aeruginosa [3]): > 32 µg/mL
- MIC (Pseudomonas aeruginosa [4]): > 32 µg/mL
- MIC (Escherichia coli [5]): 16 µg/mL (≈ 46.3 µM)
- pKa [6]: 5.7

SMILES: Cc1c(N2CCC3CC3(N)C2)c(F)cc2c(CN)cc(=O)n(C3CC3)c12 (configuration not stated)
- MIC (Escherichia coli [1]): 4 µg/mL (≈ 11.2 µM)
- MIC (Pseudomonas aeruginosa [2]): 16 µg/mL (≈ 44.9 µM)
- MIC (Klebsiella pneumoniae): 4 µg/mL (≈ 11.2 µM)
- MIC (Pseudomonas aeruginosa [3]): 4 µg/mL (≈ 11.2 µM)
- MIC (Pseudomonas aeruginosa [4]): 16 µg/mL (≈ 44.9 µM)
- MIC (Escherichia coli [5]): 1 µg/mL (≈ 2.81 µM)

SMILES: COc1c(N2CC3(C)CC3(N)C2)c(F)cc2c(CN)cc(=O)n(C3CC3)c12 (configuration not stated)
- MIC (Escherichia coli [1]): 1 µg/mL (≈ 2.68 µM)
- MIC (Pseudomonas aeruginosa [2]): 32 µg/mL (≈ 85.9 µM)
- MIC (Klebsiella pneumoniae): 4 µg/mL (≈ 10.7 µM)
- MIC (Pseudomonas aeruginosa [3]): 8 µg/mL (≈ 21.5 µM)
- MIC (Pseudomonas aeruginosa [4]): 16 µg/mL (≈ 43 µM)
- MIC (Escherichia coli [5]): 0.25 µg/mL (≈ 0.671 µM)

SMILES: Cc1c(N2CC[C@@H]([C@H](C)N)C2)c(F)cc2c(=O)n(N)c(=O)n(C3CC3)c12
- MIC (Escherichia coli [1]): 1 µg/mL (≈ 2.77 µM)
- MIC (Pseudomonas aeruginosa [2]): 4 µg/mL (≈ 11.1 µM)
- IC50 [7]: 0.22 µM
- MIC (Klebsiella pneumoniae): 2 µg/mL (≈ 5.53 µM)
- MIC (Pseudomonas aeruginosa [3]): 1 µg/mL (≈ 2.77 µM)
- MIC (Pseudomonas aeruginosa [4]): 2 µg/mL (≈ 5.53 µM)

SMILES: Cc1c(N2CC[C@@H]([C@H](C)N)C2)c(F)cc2c(-c3n[nH]c(=O)o3)cc(=O)n(C3CC3)c12
- MIC (Escherichia coli [1]): 8 µg/mL (≈ 19.3 µM)
- MIC (Pseudomonas aeruginosa [2]): > 32 µg/mL
- MIC (Klebsiella pneumoniae): 32 µg/mL (≈ 77.4 µM)
- MIC (Pseudomonas aeruginosa [3]): 8 µg/mL (≈ 19.3 µM)
- MIC (Pseudomonas aeruginosa [4]): 32 µg/mL (≈ 77.4 µM)

SMILES: Cc1c(-c2cc(F)c(N)cc2F)c(F)cc2c(CN)cc(=O)n(C3CC3)c12
- MIC (Escherichia coli [1]): 0.25 µg/mL (≈ 0.67 µM)
- MIC (Pseudomonas aeruginosa [2]): 8 µg/mL (≈ 21.4 µM)
- solubility [8]: Insoluble
- MIC (Klebsiella pneumoniae): 1 µg/mL (≈ 2.68 µM)
- MIC (Pseudomonas aeruginosa [3]): 2 µg/mL (≈ 5.36 µM)
- MIC (Pseudomonas aeruginosa [4]): 8 µg/mL (≈ 21.4 µM)
- MIC (Escherichia coli [5]): ≤ 0.03 µg/mL

SMILES: Cc1c(N2CC[C@@H]([C@H](C)N)C2)c(F)cc2c(C#N)cc(=O)n(C3CC3)c12
- MIC (Escherichia coli [1]): 1 µg/mL (≈ 2.82 µM)
- MIC (Pseudomonas aeruginosa [2]): 4 µg/mL (≈ 11.3 µM)
- MIC (Klebsiella pneumoniae): 2 µg/mL (≈ 5.64 µM)
- MIC (Pseudomonas aeruginosa [3]): 1 µg/mL (≈ 2.82 µM)
- MIC (Pseudomonas aeruginosa [4]): 1 µg/mL (≈ 2.82 µM)
- MIC (Escherichia coli [5]): ≤ 0.03 µg/mL

SMILES: Cc1c(N2CC[C@@H](N)C2)c(F)cc2c(CN)cc(=O)n(C3CC3)c12
- MIC (Escherichia coli [1]): 16 µg/mL (≈ 48.4 µM)
- MIC (Pseudomonas aeruginosa [2]): > 32 µg/mL
- MIC (Klebsiella pneumoniae): 8 µg/mL (≈ 24.2 µM)
- MIC (Pseudomonas aeruginosa [3]): 8 µg/mL (≈ 24.2 µM)
- MIC (Pseudomonas aeruginosa [4]): 32 µg/mL (≈ 96.9 µM)
- MIC (Escherichia coli [5]): 2 µg/mL (≈ 6.05 µM)

SMILES: Cc1c(N2CC[C@H](N)C2)c(F)cc2c(CN)cc(=O)n(C3CC3)c12
- MIC (Escherichia coli [1]): 2 µg/mL (≈ 6.05 µM)
- MIC (Pseudomonas aeruginosa [2]): 4 µg/mL (≈ 12.1 µM)
- MIC (Klebsiella pneumoniae): 2 µg/mL (≈ 6.05 µM)
- MIC (Pseudomonas aeruginosa [3]): 0.5 µg/mL (≈ 1.51 µM)
- MIC (Pseudomonas aeruginosa [4]): 2 µg/mL (≈ 6.05 µM)
- MIC (Escherichia coli [5]): 0.5 µg/mL (≈ 1.51 µM)
- selectivity ratio [9]: 1.7
- IC50 (NIH3T3): 288 µM
- MIC (Escherichia coli [10]): > 32 µg/mL
- Ratio (Escherichia coli [11]): >=32

SMILES: C[C@@H]1CN(c2c(F)c(N)c3c(=O)c(C(=O)O)cn(C4CC4)c3c2F)C[C@H](C)N1 [SPARFLOXACIN]
- selectivity ratio [9]: > 82

SMILES: Cc1c(N2CC[C@@H]([C@H](C)N)C2)c(F)cc2c(CO)cc(=O)n(C3CC3)c12
- MIC (Escherichia coli [1]): 16 µg/mL (≈ 44.5 µM)
- MIC (Pseudomonas aeruginosa [2]): 16 µg/mL (≈ 44.5 µM)
- MIC (Klebsiella pneumoniae): 32 µg/mL (≈ 89 µM)
- MIC (Pseudomonas aeruginosa [3]): 4 µg/mL (≈ 11.1 µM)
- MIC (Pseudomonas aeruginosa [4]): 8 µg/mL (≈ 22.3 µM)
- MIC (Escherichia coli [5]): 0.25 µg/mL (≈ 0.696 µM)

SMILES: Cc1c(N2CC3CC3(N)C2)c(F)cc2c(CN)cc(=O)n(C3CC3)c12 (configuration not stated)
- MIC (Escherichia coli [1]): 0.25 µg/mL (≈ 0.73 µM)
- MIC (Pseudomonas aeruginosa [2]): 4 µg/mL (≈ 11.7 µM)
- MIC (Klebsiella pneumoniae): 0.5 µg/mL (≈ 1.46 µM)
- MIC (Pseudomonas aeruginosa [3]): 0.5 µg/mL (≈ 1.46 µM)
- MIC (Pseudomonas aeruginosa [4]): 1 µg/mL (≈ 2.92 µM)
- MIC (Escherichia coli [5]): 0.06 µg/mL (≈ 0.175 µM)
- selectivity ratio [9]: 104
- IC50 (NIH3T3): 3.03 µM
- IC50 at 110 min [12]: 316 µM
- MIC (Escherichia coli [10]): 32 µg/mL (≈ 93.5 µM)
- Ratio (Escherichia coli [11]): 128
- Selectivity ratio [13]: 4

SMILES: Cc1c(N2CC[C@@H]([C@H](C)N)C2)c(F)cc2c(C(=O)O)cc(=O)n(C3CC3)c12
- MIC (Escherichia coli [1]): > 32 µg/mL
- MIC (Pseudomonas aeruginosa [2]): > 32 µg/mL
- MIC (Klebsiella pneumoniae): > 32 µg/mL
- MIC (Pseudomonas aeruginosa [3]): > 32 µg/mL
- MIC (Pseudomonas aeruginosa [4]): > 32 µg/mL
- pKa [6]: 2.2

SMILES: COc1cc(=O)n(C2CC2)c2c(C)c(N3CC[C@@H]([C@H](C)N)C3)c(F)cc12
- MIC (Escherichia coli [1]): 32 µg/mL (≈ 89 µM)
- MIC (Pseudomonas aeruginosa [2]): 32 µg/mL (≈ 89 µM)
- MIC (Klebsiella pneumoniae): 16 µg/mL (≈ 44.5 µM)
- MIC (Pseudomonas aeruginosa [3]): 8 µg/mL (≈ 22.3 µM)
- MIC (Pseudomonas aeruginosa [4]): 16 µg/mL (≈ 44.5 µM)
- MIC (Escherichia coli [5]): 1 µg/mL (≈ 2.78 µM)

SMILES: Cc1c(N2C[C@H]3CC[C@@]3(N)C2)c(F)cc2c(CN)cc(=O)n(C3CC3)c12 (racemic)
- MIC (Escherichia coli [1]): 2 µg/mL (≈ 5.61 µM)
- MIC (Pseudomonas aeruginosa [2]): 8 µg/mL (≈ 22.4 µM)
- MIC (Klebsiella pneumoniae): 4 µg/mL (≈ 11.2 µM)
- MIC (Pseudomonas aeruginosa [3]): 2 µg/mL (≈ 5.61 µM)
- MIC (Pseudomonas aeruginosa [4]): 4 µg/mL (≈ 11.2 µM)
- MIC (Escherichia coli [5]): 0.25 µg/mL (≈ 0.701 µM)
